Results taken from patent US9359298B2, “Cajanine structure analogous compound, preparation method and use” (INSTITUTE OF MEDICINAL BIOTECHNOLOGY, CHINESE ACADEMY OF …, priority 2011, dated 2016).
≈ marks a conversion by molar mass, not a printed value.

Key:
Type in all cases: cell-based
HIV-1 III B virus = assay: Anti-HIV activity assay (P24 antigen in MT-4 cells); conditions: for IC50: Human immunodeficiency virus 1, MT4, 96 h, MT-4 cells, HIV-1 III B 100TCID50, 96 h, P24 antigen, read-out: HIV IC50; for anti-HIV viral activity: statement in words
PC12 cells [1] = assay: Neuroprotective activity assay, serum-deprived injury to PC12 cells (MTT); conditions: for viability at 10 µM: Rattus norvegicus, PC-12, 48 h, 10 μM test compound, 48 h, Control 100.0 ± 9.2, Model 69.3 ± 4.1, read-out: serum-deprived (surviving PC12 cells, MTT 570 nm); for protective effect on serum-deprived injury to PC12 cells: statement in words
Protocol: (§1) Discard the original culture media from confluent monolayers of PC12 cells (simulated neuronal cells), add DMEM complete medium with 5% FBS, 5% horse serum gently beat upon the cells with a pipette to completely disperse them, inoculate 100 μl cell suspension at a density of […] per well to 96 hole plates treated with poly-lysine (0.1 mg/ml) in advance, culture for 24h. Divide the experimenting cells into control group, model group and dosing groups. Add complete medium to the control group. Model groups includes rotenone group and serum-deprived group, add rotenone to the corresponding modules with a final concentration of 4 μM rotenone to take effect on the cells for 48 h, add serum-deprived groups with serum-free DMEM medium to take effect on the cells for 48 h. Dosing groups also includes two groups, one using rotenone module as model, another using serum-deprived module as model, and both add in 10 μM test compounds during modeling. 48h later, add 10 μl 5 mg/ml MTT, subsequently discard the supernatant 4h later and add in 150 μl DMSO, measure 570 nm absorbance to represent the numbers of surviving cells.

PC12 cells [2] = assay: Neuroprotective activity assay, rotenone injury to PC12 cells (MTT); conditions: for viability at 10 µM: Rattus norvegicus, PC-12, 48 h, 10 μM test compound, 4 μM rotenone, 48 h, Control 100.0 ± 8.9, Model 73.2 ± 7.8, read-out: rotenone (surviving PC12 cells, MTT 570 nm); for protective effect on rotenone injury to PC12 cells: statement in words
Protocol: as §1

[3] = test system: Influenza A virus (hanfang359/95); assay: Determination of anti-influenza virus activity (CPE in MDCK cells); conditions: for IC50: Influenza A virus, MDCK, 36 h; for anti-influenza virus activities compared with the lead compound cajanine: statement in words
Coxsackie virus B6 = assay: Coxsackie virus activity assay (CPE in Vero cells); conditions: Vero, read-out: COX-B6 IC50, Vero cells, about 100TCID50, CPE, Reed-Muench
HCV = assay: Anti-hepatitis C virus (HCV) activity assay (HCV RNA in Huh7.5 cells); conditions: for EC50: Hepatitis C virus, Huh7.5, 72 h, Huh7.5 cells, 72 h, HCV RNA by RT-PCR, Reed-Muench, read-out: HCV EC50; for anti-HCV viral activity: statement in words
Protocol: Inoculate Huh7.5 cells into 96-well plates to a density of 3×10^4 cells/cm^2, culture for 24h, infect the cells with 45 IU/cell HCV supernatant, meanwhile, add drug solutions or solvent control for treatment.

Row | SMILES | IC50 (HIV-1 III B virus) [µg/mL] | anti-HIV viral activity (HIV-1 III B virus) | viability at 10 µM (PC12 cells [1]) [%] | viability at 10 µM (PC12 cells [2]) [%] | IC50 [3] [µg/mL] | IC50 (Coxsackie virus B6) [µg/mL] | EC50 (HCV) [µg/mL] | anti-HCV viral activity (HCV) | protective effect on serum-deprived injury to PC12 cells (PC12 cells [1]) | protective effect on rotenone injury to PC12 cells (PC12 cells [2]) | anti-influenza virus activities compared with the lead compound cajanine [3]
1 | COc1cc(/C=C/c2ccccc2Cl)c(C(=O)O)c(O)c1CC=C(C)C [Compound 1b, 2-hydroxy-3-isopentenyl-4-methoxy-6-[(E)-2-chlorostyryl]benzoic acid] | 1.22 (≈ 3.27 µM) | stronger anti-HIV, HCV viral activities | 15.7 ± 0.3 | 68.2 ± 8 | > 18.5 | > 1.03 | 0.67 (≈ 1.8 µM) | stronger anti-HIV, HCV viral activities | – | – | –
2 | COc1cc(/C=C/c2ccccc2)c(C(=O)Nc2ccccc2)c(O)c1CC=C(C)C [Compound 9g, N-phenyl-2-hydroxy-3-isopentenyl-4-methoxy-6-[(E)-styryl]benzamide] | 0.79 (≈ 1.91 µM) | – | 89.4 ± 2.3 | 87.4 ± 1.9 | 0.84 (≈ 2.03 µM) | 1.59 (≈ 3.85 µM) | 5.1 (≈ 12.3 µM) | – | the strongest activities | the strongest activities | –
3 | COc1cc(/C=C/c2ccc(C)cc2)c(C(=O)O)c(O)c1CC=C(C)C [Compound 1g, 2-hydroxy-3-isopentenyl-4-methoxy-6-[(E)-4-methylstyryl]benzoic acid] | 0.68 (≈ 1.93 µM) | – | 59.8 ± 11.4 | 77.7 ± 12.9 | > 0.82 | 4.25 (≈ 12.1 µM) | 1.43 (≈ 4.06 µM) | – | – | – | –
4 | COc1cc(/C=C/C2CCCCC2)cc(O)c1CC=C(C)C [Compound 10p, 2-isopentenyl-3-methoxy-5-[(E)-2-cyclohexylvinyl]phenol] | 7.19 (≈ 23.9 µM) | – | 84.6 ± 2.7 | 86.7 ± 9.1 | 2.65 (≈ 8.82 µM) | > 6.19 | 2.95 (≈ 9.82 µM) | – | the strongest activities | the strongest activities | –
5 | C/C(=C\c1cc(O)cc(O)c1)c1cc(O)cc(O)c1 [Compound 21h, 1,3-dihydroxy-5-[(E)-2-(3,5-dihydroxyphenyl)propen-1-yl]benzene] | 5.28 (≈ 20.4 µM) | – | 74.8 ± 2.6 | 71.2 ± 3.8 | 5.84 (≈ 22.6 µM) | 6.98 (≈ 27 µM) | 4.46 (≈ 17.3 µM) | – | – | – | –
6 | COC(=O)c1c(/C=C/c2c(OC)cccc2OC)cc(OC)c(CC=C(C)C)c1O [Compound 8d, methyl 2-hydroxy-3-isopentenyl-4-methoxy-6-[(E)-2,6-dimethoxystyryl]-benzoate] | 0.86 (≈ 2.08 µM) | – | 82 ± 3.2 | 84.4 ± 3.6 | > 6.17 | > 9.26 | 5.17 (≈ 12.5 µM) | – | the strongest activities | the strongest activities | –
7 | Oc1cc(O)cc(/C=C/Cc2ccccc2)c1 [Compound 21b, 1,3-dihydroxy-5-[(E)-3-phenylpropen-1-yl]benzene] | 0.88 (≈ 3.89 µM) | – | 74.6 ± 3.5 | 78.9 ± 6.8 | 2.54 (≈ 11.2 µM) | 3.26 (≈ 14.4 µM) | 1.47 (≈ 6.5 µM) | – | – | – | –
8 | COc1cc(/C=C/c2ccncc2)c(C(=O)O)c(O)c1CC=C(C)C [Compound 1r, 2-hydroxy-3-isopentenyl-4-methoxy-6-[(E)-2-(pyridin-4-yl)ethenyl]benzoic acid] | 6.53 (≈ 19.2 µM) | – | 84.3 ± 6.3 | 86.3 ± 5.4 | 6.36 (≈ 18.7 µM) | 6.35 (≈ 18.7 µM) | 6.79 (≈ 20 µM) | – | the strongest activities | the strongest activities | –
9 | COC(=O)c1c(/C=C/c2ccc(OC(C)=O)cc2)cc(OC)c(CC=C(C)C)c1O [Compound 8q, methyl 2-hydroxy-3-isopentenyl-4′-methoxy-6-[(E)-4-acetoxystyryl]benzoate] | 2.1 (≈ 5.12 µM) | – | 79.8 ± 5.8 | 80.5 ± 6.5 | 8.23 (≈ 20.1 µM) | 5.23 (≈ 12.7 µM) | 7.63 (≈ 18.6 µM) | – | the strongest activities | the strongest activities | –
10 | COc1cc(/C=C/c2ccccc2)c(C(=O)O)c(OC(=O)CN)c1CC=C(C)C [Compound 24b, 2-Aminoacetoxy-3-isopentenyl-4-methoxy-6-[(E)-styryl]benzoic acid] | 2.01 (≈ 5.08 µM) | – | 89.7 ± 5.6 | 88.3 ± 5.2 | 4.25 (≈ 10.7 µM) | 1.24 (≈ 3.14 µM) | 1.68 (≈ 4.25 µM) | – | – | – | –
11 | COc1cc(/C=C/c2ccccc2)cc(O)c1CCC(C)C [Compound 10w, 2-isopentyl-3-methoxy-5-[(E)-styryl]phenol] | 0.75 (≈ 2.53 µM) | – | 79.1 ± 4.6 | 78.2 ± 5.8 | 0.53 (≈ 1.79 µM) | 2.45 (≈ 8.27 µM) | 2.59 (≈ 8.74 µM) | – | – | – | significantly stronger than the lead compound cajanine
12 | COc1cc(/C=C/c2ccccc2)c(C(=O)O)c(OC(=O)c2cccnc2)c1CC=C(C)C [Compound 24k, 2-(pyridyl-3-formylox)-3-isopentenyl-4-methoxy-6-[(E)-styryl]benzoic acid] | 2.17 (≈ 4.89 µM) | – | 89.6 ± 2.3 | 85.6 ± 2.1 | 3.55 (≈ 8 µM) | 1.36 (≈ 3.07 µM) | 4.87 (≈ 11 µM) | – | the strongest activities | the strongest activities | –
13 | COc1cc(/C=C/Cc2ccccc2)c(C(=O)O)c(O)c1CC=C(C)C [Compound 1k, 2-hydroxy-3-isopentenyl-4-methoxy-6-[(E)-3′-phenyl-propen-1′-yl]benzoic acid] | 2.4 (≈ 6.81 µM) | – | 19.2 ± 0.5 | 60.4 ± 3.2 | 2.05 (≈ 5.82 µM) | > 2.06 | 1.03 (≈ 2.92 µM) | – | – | – | significantly stronger than the lead compound cajanine
14 | COc1cccc(/C=C/c2cc(OC)c(CC=C(C)C)c(O)c2C(=O)O)n1 [1b′, 2-hydroxy-3-isopentenyl-4-methoxy-6-[(E)-2-(6-methoxypyrid-2-yl)ethenyl]benzoic acid] | 3.19 (≈ 8.64 µM) | stronger anti-HIV, HCV viral activities | 88.9 ± 1.9 | 87.2 ± 6.31 | 4.62 (≈ 12.5 µM) | 5.98 (≈ 16.2 µM) | 0.88 (≈ 2.38 µM) | stronger anti-HIV, HCV viral activities | – | – | –
15 | COc1cc(/C=C/c2ccccc2)c(C(=O)O)c(OCN)c1CC=C(C)C [Compound 26b, 2-aminomethoxy-3-isopentenyl-4-methoxy-6-[(E)-styryl]benzoic acid] | 7.83 (≈ 21.3 µM) | – | 88.2 ± 4.1 | 89.7 ± 6.3 | 3.65 (≈ 9.93 µM) | 3.54 (≈ 9.63 µM) | 5.66 (≈ 15.4 µM) | – | – | – | –
16 | COC(=O)c1c(/C=C/c2ccccc2)cc(OC)c(CC=C(C)C)c1OC [Compound 14, methyl 2,4-dimethoxy-3-isopentenyl-6-[(E)-styryl]benzoate] | 1.32 (≈ 3.6 µM) | – | 69.7 ± 5.6 | 73.7 ± 8.5 | > 2.06 | 1.6 (≈ 4.37 µM) | 1.77 (≈ 4.83 µM) | – | – | – | –
17 | COc1cc(/C=C/C=C/c2ccccc2)cc(O)c1CC=C(C)C [Compound 10m, 2-isopentenyl-3-methoxy-5-[(1′E,3′E)-phenylbutadiene-1′,3′-yl]phenol] | 2.33 (≈ 7.27 µM) | stronger anti-HIV, HCV viral activities | 89.3 ± 6.4 | 85.3 ± 7.1 | 2.35 (≈ 7.33 µM) | 6.12 (≈ 19.1 µM) | 1.75 (≈ 5.46 µM) | stronger anti-HIV, HCV viral activities | the strongest activities | the strongest activities | significantly stronger than the lead compound cajanine
18 | COc1cc(/C=C/c2ccccc2)c(C(=O)O)c(OC(C)=O)c1CC=C(C)C [Compound 24h] | 1.33 (≈ 3.5 µM) | – | 88.9 ± 5.4 | 87.8 ± 6.3 | 0.45 (≈ 1.18 µM) | 1.21 (≈ 3.18 µM) | 2.39 (≈ 6.28 µM) | – | – | – | –
19 | C=CCc1c(OC)cc(/C=C/c2ccccc2)c(C(=O)OC)c1O [8a′, methyl 2-hydroxy-3-allyl-4-methoxy-6-[(E)-styryl]benzoate] | – | – | 87.9 ± 2.5 | 88 ± 6.9 | 0.15 (≈ 0.462 µM) | 1.64 (≈ 5.06 µM) | – | – | – | – | –
20 | C=CCc1c(O)cc(/C=C/c2ccccc2)cc1OC [10h′, 2-allyl-3-methoxy-5-[(E)-styryl]phenol] | – | – | 87.6 ± 4.3 | 86.7 ± 4.5 | 0.09 (≈ 0.338 µM) | 0.54 (≈ 2.03 µM) | – | – | – | – | –
